Results as given in patent US7186703B2, “Derivatives of branched-chain lipophilic molecules and uses thereof” (D-Pharm Ltd., priority 2000, dated 2007).
“And” between values parts separate entries of the source, which are not always exact repeats. Identical values can stand only once.

Legend:
[1] = tested on: blood brain barrier (BBB); assay: BBB permeability to EB-albumin and Fluorescein in normal rat brains; type: in vivo; conditions: compounds at EC50 (Mannitol 25%); for % EB/g brain: control 0.04 ± 0.01; for Brain fluorescein uptake (% of serum F-Na level): control 0.3 ± 0.08; for Ratio F-Na/EB (mean of individual ratios): control 9.5 ± 1.6
Text: The effect of various DP-BFAs on BBB permeabilization to molecules of different sizes was examined in vivo in the model system of normal rat brains.
The transport of two markers was followed: a) Evans blue bound to albumin (MW 70 kD) as an indicator for paracellular transport; and b) Fluorescein sodium salt (MW 376 D) that represents small size molecules.
The Evans blue dye (EB) and Fluorescein sodium salt (F—Na) were infused into the artery carotis externa over 30 seconds according to the protocol described above in Example 17. The test compounds were used at their EC50 concentrations. Control animals were treated with vehicle solution.
Evans blue extravasation is expressed as the percentage of the total amount of EB accumulated per one gram of brain tissue. The transport of fluorescein into the brain, which is dependent on the serum concentration of this molecule, is presented as percentage of the F—Na level in the serum.

[2] = tested on: Primary fibroblasts; assay: MTT cytotoxicity, normal primary fibroblasts; type: cell-based, human; conditions: three days, read-out: EC50 (50% reduction in cell viability)
Protocol: (§1) The cytotoxic activity of various phospho-derivatives of branched-chain fatty acids (DP-BFAs) was assayed in vitro in cell cultures that include normal and malignant cell types. The following cell systems were used: • Primary fibroblasts (human) • Normal bone marrow (BM) cells (mouse) • Primary bronchial epithelial cells (human, from Clonetics, cat. no. CC-2541) • Caco-2—colon cancer cell line (human, ATTC, HTB-37) • C6 glioma cell line (rat, ATCC, CRL-2199) • Neuro2a—neuroblastoma cell line (mouse, ATCC, CCL-131) • SKBR-3—breast cancer cell line (human, ATTC, HTB-30) • HL60—myeloid leukemia cell line (human, ATCC, CCL-240) • U937—myeloid leukemia cell line (human)
(§2) Cells were seeded in a microtiter plate in MEM containing 2 mM L-glutamine, 100 units/ml penicillin, 100 ug/ml streptomycin and 10% FCS at 37° C. The cultured cells were incubated, during their linear growth phase in the absence (control group) or presence of various DP-BFAs as indicated. The final concentrations of the tested DP-BFAs ranged from 1.5 to 200 microMolars. At the end of the incubation period, which was five days for the bone marrow cells and three days for all the other cell lines, the cytotoxic effect of the added P-BFA on the cells was estimated by using the colorimetric MTT assay. The MTT assay (Mosmann (1983) J. Immunol Methods 65: 55–63) measures mitochondrial reductase activity and serves for quantitative assessment of cellular viability. Drug concentration that causes 50% reduction in cell viability in comparison to the control group, is defined as EC50. The EC50 values of the tested DP-BFA compounds were calculated from dose response curves established for each of the different assayed cell lines.
(§3) Each EC50 value is an average of EC50 values derived from 1–5 independent experiments.

[3] = tested on: blood brain barrier (BBB); assay: BBB permeabilization in rats, Evans blue extravasation into brain; type: in vivo, Sprague-Dawley rats; conditions: Table 6; for μg EB/g brain (at EC50): at EC50 (Mannitol at 25%)
Text: Permeabilization of the BBB by DP-BFA was investigated in rat model system by monitoring accumulation in the brain of two markers: a) Evans blue dye (EB), which rapidly binds in vivo with albumin (NW 70 kD) and is an indicator for paracellular transport; and b) Fluorescein sodium salt (F—Na), MW 376 D, which is transported via the cellular space, and enables monitoring transcellular transport. Upon BBB disruption the Evans blue-albumin complex irreversibly accumulates in the intercellular space of the brain. The much smaller tracer fluorescein may be transported intracellularly to occupy both inter and intracellular space in the brain.
Blood brain barrier permeabilization in Sprague-Dawley rats was induced by brief exposure to DP-BFA. The animals were anesthetized with Rampun-Imalgen and DP-BFA test compounds were administered via the external carotid artery retrograde to the brain (Smith, Q. R. Methods of study. In: Physiology and Pharmacology of the Blood-Brain Barrier. Ed. Bradbury M. W. B. Spinger-Verlag. Berlin-Heidelberg-NY; 1992: 24–52). The pterygo-palathina artery was ligated to avoid escape of infused solutions towards the external head vasculature. DP-BFA solutions were infused over a period of 30 seconds or half an hour, using a Harvard Apparatus Syringe Pump. Blood flow through carotid communis artery was interrupted only at the time of infusion.
All tested DP-BFA molecules were prepared from stock solutions in either water or ethanol by diluting 200–1000 fold into solution of isosmotic mannitol (5%) in Tromethamine buffer (Sigma) or PBS (pH 7.4)
The markers, Evans blue (EB, 25 mg/ml) and fluorescein (F—Na, 12.5 mg/ml), in 1 ml solution, were injected intravenously immediately following administration of the tested DP-BFA, or after a specific time interval if reversibility of action was investigated. Supportive i.v. infusion of F—Na (12.5 mg/ml–100 μl/min) was performed for 8 minutes. Brains were washed with saline solution (60 ml) 10 min after the intracarotid “flash”. Brain ipsilateral and contralateral hemispheres and tumors, where applicable, were homogenized separately with 50% trichloroacetic acid (TCA). The markers concentrations in the cortex and in tumors, where, applicable, were determined spectrofluorometrically (Uyama, O. et al., (1988) J. Cereb. Blood Flow Metab. 8, 282–284: Abraham et al., (1996) Neurosci. Lett. 208, 85–88). The markers content was calculated as μg marker per one-gram brain tissue. Standard error and Student's test for statistical significance were used.
The experiment was carried out on male Sprague-Dawley rats weighing 250–320 g. The procedure described above in Example 17 was followed.
The effect of the tested compounds on the BBB opening was evaluated by two parameters:
a) efficacy—The degree of BBB opening estimated in terms of accumulation of Evans Blue albumin (μg EB/g brain tissue); and
b) potency—measured in terms of EC50 and minimal effective concentration (MEC) values. EC50 is the concentration of a tested compound producing 50% of the maximal effect of Evans Blue extravasation.
The effect of various DP-BFAs on BBB permeability was tested in the model system of rat brains, as described above in Example 17. Efficacy, namely the level of the BBB opening was expressed as the amount of Evans blue accumulated in the brain (μg EB/g brain). Potency of the tested molecules was estimated by their calculated EC50 and minimal effective concentration (MEC) values.

[4] = tested on: Primary bronchial epithelial cells; assay: MTT cytotoxicity, normal primary epithelial cells; type: cell-based, human; conditions: Normal primary epithel, three days, read-out: EC50 (50% reduction in cell viability)
Protocol: as §1, §2, §3

[5] = tested on: SKBR-3 breast cancer cell line; assay: MTT cytotoxicity, SKBR-3; type: cell-based, human; conditions: three days, read-out: EC50 (50% reduction in cell viability)
Protocol: as §1, §2, §3

[6] = tested on: Caco-2 colon cancer cell line; assay: MTT cytotoxicity, Caco-2; type: cell-based, human; conditions: Caco-2, three days, read-out: EC50 (50% reduction in cell viability)
Protocol: as §1, §2, §3

[7] = tested on: U937 myeloid leukemia cell line; assay: MTT cytotoxicity, U937; type: cell-based, human; conditions: U937, three days, read-out: EC50 (50% reduction in cell viability)
Protocol: as §1, §2, §3

[8] = tested on: Neuro2a neuroblastoma cell line; assay: MTT cytotoxicity, Neuro2a; type: cell-based, mouse; conditions: three days, read-out: EC50 (50% reduction in cell viability)
Protocol: as §1, §2, §3

[9] = tested on: C6 glioma cell line; assay: MTT cytotoxicity, C6 glioma; type: cell-based, rat; conditions: three days, read-out: EC50 (50% reduction in cell viability)
Protocol: as §1, §2, §3

[10] = tested on: Normal bone marrow (BM) cells; assay: MTT cytotoxicity, normal bone marrow cells; type: cell-based, mouse; conditions: five days, read-out: EC50 (50% reduction in cell viability)
Protocol: as §1, §2, §3

[11] = tested on: blood brain barrier (BBB); assay: BBB opening in C6 glioma-bearing rats, Evans blue accumulation in non-tumor brain; type: in vivo, Sprague Dawley rats; conditions: concentrations around EC50 (Mannitol 25%), unilateral 30 s infusion
Protocol: (§4) In order to study the ability of DP-BFA compounds to modulate blood tumor barrier (BTB), a model system of C6 glioma-bearing rats, was employed.
(§5) Sprague Dawley (SD) rats were inoculated with C6 gliosarcoma cells following the procedure described by Bartus et al. (Exp Neurol (1996); 142:14–28). A small burr-hole was made in the frontal scalp bone of the rat fixed in a stereotaxis apparatus. Using a Hamilton syringe, 10 μl or 5 μl of media, containing 2.5×10^5 C6 gliosarcoma cells were inoculated into the frontal cortex. Coordinates were 1 mm posterior of bregma, 2.5 mm—lateral, and 3 mm—depth. The needle remained in the place for 5 min. After removal of the needle, fascia and scalp were sutured. The rats were checked 6–8 days after inoculation, when tumors of sufficient size (20–60 mg) had developed. The tumor was weighed after F—Na visualization and dissection. Parts of the rats' brains were subject to histological examinations and monitored for Evans Blue and Fluorescein uptake into ipsilateral tumour tissue, peritumoural tissue and contralateral tissue.
(§6) The bilateral tumor model system of C6 glioma-bearing rats described in Example 23 above was employed for screening of various derivatives of DP-BFA for their ability to permeabilize the blood brain barrier (BBB) in comparison to their effect on the blood tumor barrier (BTB). The experimental procedure described in Example 23 was followed except that the tumor-bearing rats were further treated with DP-BFA. The tested compounds, at concentrations around their EC50 values, were unilaterally infused into the external carotis artery over 30 seconds as described in Example 17. Animals treated with vehicle only serve as a control group. Permeabilization effect was quantitated by measuring accumulation of albumin bound Evans blue dye in tumor (T) versus non-tumor (NT) tissues.
(§7) Specificity index is defined as the ratio between the levels of EB accumulated in tumor and those accumulated in non-tumor brain tissues (T/NT).

[12] = tested on: blood tumor barrier / blood brain barrier; assay: Unilateral administration in rats with bilateral C6 gliomas, Evans blue staining of brain sections; type: in vivo, SD rats; conditions: 10 μM 3,12-DEG-HPO4Na; 40 μM 3,12-Na; 25% mannitol; unilateral infusion
Protocol: FIGS. 2A–C depict Evans blue accumulation in brain sections of rats bearing bilateral gliomas following unilateral administration of a compound as follows: 10 μM 3,12-DEG-HPO4Na (FIG. 2A), 40 μM 3,12-Na (FIG. 2B) or mannitol 25% (FIG. 2C).
Evans Blue and Fluoroscein penetration into gliomas tumors was examined following unilateral infusion into the external carotis artery of either 10 μM 3,12-DEG-HPO4Na (FIG. 2A), 40 μM 3,12-Na BFA (FIG. 2B) or 25% mannitol (FIG. 2C). The relevant compound was infused into rat brains at 9 to 12 days following inoculation of C6 glioma cells as described in Example 23.

[13] = tested on: blood tumor barrier (BTB) of C6 glioma; assay: BTB opening in C6 glioma-bearing rats, Evans blue accumulation in tumor; type: in vivo, Sprague Dawley rats; conditions: for Specificity Tumor/Non-tumor (T/NT): ratio of EB accumulated in tumor and non-tumor brain
Protocol: as §4, §5, §6, §7

| SMILES | % EB/g brain [1] [%] | Brain fluorescein uptake (% of serum F-Na level) [1] | Ratio F-Na/EB (mean of individual ratios) [1] | EC50 [2] [µM] | μg EB/g brain (at EC50) [3] | MEC (minimal effective concentration) ([3]; concentration giving 3 μg EB/g brain) [µM] | EC50 ([3]; rat brains, Evans blue extravasation, read-out: EQ50 (the source's name)) [µM] | EC50 [4] [µM] | EC50 [5] [µM] | EC50 [6] [µM] | EC50 [7] [µM] | EC50 [8] [µM] | EC50 [9] [µM] | EC50 [10] [µM] | BBB EB μg/g Non-tumor brain [11] [µg/g] | Ratio F-Na/EB (mean of individual ratios) ([1]; listed as mannitol) | Evans Blue staining of tumor and non-tumor brain (FIG. 2, in words) [12] | BTB EB μg/g Tumor ([13]; concentrations around EC50 (Mannitol 25%), unilateral 30 s infusion) [µg/g] | Specificity Tumor/Non-tumor (T/NT) [13] | Specificity Tumor/Non-tumor (T/NT) ([13]; listed as mannitol) |
| --- | --- | --- | --- | --- | --- | --- | --- | --- | --- | --- | --- | --- | --- | --- | --- | --- | --- | --- | --- | --- |
| CCCCCCCCCCCCC(CCC)OCCOCCOP(=O)([O-])[O-].[Na+].[Na+] (stereo not drawn) [3,12-(ether)-DEG-PO4Na2, 2(4-Hexadecanoxy)ethoxyethyl Disodium Phosphate] | 4 ± 0.8 | 4.4 ± 0.9 % of the F—Na level in the ser | 1.1 and 1.1 ± 0.2 | 65 | 26 μg EB/g brain and 26 ± 5.2 μg EB/g brain | 7.3 ± 1.4 | 54 ± 5 | > 200 | 58 | 47 | 10 | 37 | 40 | 68 |  |  |  |  |  |  |
| OC[C@@H](O)[C@@H](O)[C@H](O)[C@H](O)CO [Mannitol, mannitol, reference compound] | 0.6 ± 0.21 | 2.4 ± 0.4 % of the F—Na level in the ser | 4.0 ± 0.5 |  | 10 ± 2 μg EB/g brain |  |  |  |  |  |  |  |  |  | 7 ± 2 | 4 | equally permeabilized tumor and non-tumor brain tissues | 12 ± 2 | 2.1 ± 0.5 | about twice |
